# Tests used:
# [1] = Flowability test (compaction rate); assay type: physicochemical; conditions: powder sieved 177 μm mesh; (compacted − loose bulk density)/compacted bulk density × 100
# Excerpt: The obtained powdery sample was roughly filled in a glass measuring cylinder (10 cm^3), the upper surface of the powder layer was horizontally smoothened, and the value of the volume was read. The weight of the powdery sample was divided with the volume to obtain loose bulk density (g/cm^3).
# Then, the glass measuring cylinder filled with the powdery sample was tapped by using a general powdery characteristic measuring apparatus (Powdertester Type PT-E, Hosokawa Micron CORP.). When the volume of the powder layer no longer changed, the value of the volume was read. The weight of the powdery sample was divided with the volume to obtain compacted bulk density (g/cm^3).
# The compaction rate (%) was obtained in accordance with the following equation. Compaction rate (%)=[(Compacted bulk density−Loose bulk density)/Compacted bulk density]×100
# tumors = conditions: orally administered to mice; Non-patent documents 1 and 2; cited from earlier work
# BxPC-3 = assay: Antitumor activity: cell proliferation inhibition (ATPlite); assay type: cell-based; conditions: BxPC-3, 1000 cells/well, 3 days culture
# Procedure: (§1) Cells at the logarithmic phase were inoculated on a 96-well plate at a density of 1000 cells/well (BxPC-3, MIA PaCa-2) or 3000 cells/well (Capan-1), and cultured overnight at 37° C. in a CO2 incubator. On the next day, serially diluted solutions of each test compound were added, and culture was performed for 3 days in an incubator. After completion of the culture, by using a cell proliferation assay kit ATPlite (Perkin Elmer), and a plate reader Envision (Perkin Elmer), emission was measured. Concentrations of the test compounds providing 50% of cell proliferation inhibition (IC50) were calculated by fitting using a sigmoid function. The solutions of the test compounds were prepared by diluting them with PBS (pH 7.4) at 10 mM, and further diluting the 10 mM solutions with PBS (pH 7.4), and used in the test.
# MIA PaCa-2 = assay: as above; assay type: cell-based; conditions: MIA PaCa-2, 1000 cells/well, 3 days culture
# Procedure: as §1
# Capan-1 = assay: as above; assay type: cell-based; conditions: Capan-1, 3000 cells/well, 3 days culture
# Procedure: as §1
# Tableting property test = assay type: physicochemical; conditions: average of five tabletings; 5 points surface has gloss, 1 point surface is chipped, 0 point tablets stick to pestle; 1000 kgf, 100 mg tablet
# Procedure: The obtained powdery sample was compression-molded by using a tableting machine (Tableting Machine HT-P18A, Hata Iron Works, Ltd.; tableting diameter, 6.5 mm; tableting pressure, 1000 kgf; tablet weight, 100 mg) to obtain tablets. The obtained tablets were macroscopically observed, and graded according to the following criteria.
# 5 Points: Surface has gloss.
# 4 Points: Surface is slightly roughened.
# 3 Points: Surface is roughened.
# 2 Points: Surface is slightly chipped.
# 1 Point: Surface is chipped.
# 0 Point: Tablets stick to pestle, and cannot be unstuck.
# The tableting was performed five times, and averages of the scores of the tablets were calculated.
# [2] = Stability test (deliquescence on storage); assay type: physicochemical; conditions: stored 2 weeks, open state, 60° C. and 75% relative humidity, macroscopic observation
# Procedure: The compounds of Examples 1 and 2 were stored for 2 weeks in an open state under conditions of 60° C. and 75% relative humidity. The test compounds were macroscopically observed after the storage, and presence or absence of deliquescence was examined.
# Procedure for Solubility test in water: Each of the test compounds and the comparative compound was added to water, and the mixture was stirred at room temperature for 24 hours. The insoluble matter was removed by filtration using a membrane filter (0.2 μm). The filtrate was analyzed by high performance liquid chromatography (HPLC) to obtain the solubility.
SMILES,Compaction rate [1] [%],solubility at 24 h (Solubility test in water; thermodynamic from solid) [µg/mL],antitumor activity (tumors),"IC50 (BxPC-3; Homo sapiens, 72 h) [nM]","IC50 (MIA PaCa-2; Homo sapiens, 72 h) [nM]","IC50 (Capan-1; Homo sapiens, 72 h) [nM]",Score (tableting property) (Tableting property test),"Solubility in water (Solubility test in water; room temperature, stirred 24 hours, 0.2 μm filtration, HPLC) [µg/mL]",presence or absence of deliquescence [2],IC50 (BxPC-3) [nM],IC50 (MIA PaCa-2) [nM],IC50 (Capan-1) [nM]
"Nc1ccn([C@@H]2S[C@H](CO)[C@@H](O)[C@@H]2F)c(=O)n1 [Comparative compound, 1-(2-deoxy-2-fluoro-4-thio-β-D-arabinofuranosyl)cytosine]",41,2000,potent antitumor activity,45,382,35,1.0,–,–,–,–,–
"CS(=O)(=O)O.Nc1ccn([C@@H]2S[C@H](CO)[C@@H](O)[C@@H]2F)c(=O)n1 [Example 1, methanesulfonate of 1-(2-deoxy-2-fluoro-4-thio-β-D-arabinofuranosyl)cytosine]",18,–,–,–,–,–,4.5,79000,did not deliquesce,45,373,36
"Cl.Nc1ccn([C@@H]2S[C@H](CO)[C@@H](O)[C@@H]2F)c(=O)n1 [Example 2, hydrochloride of 1-(2-deoxy-2-fluoro-4-thio-β-D-arabinofuranosyl)cytosine]",21,–,–,–,–,–,5.0,–,did not deliquesce,41,417,31

# Source: patent publication US9896471B2, “Salt of 1-(2-deoxy-2-fluoro-4-thio-β-D-arabinofuranosyl)cytosine” (FUJIFILM Corporation, priority 2012, dated 2018)
